{
  "source": "paper PMC3548936",
  "about": "(ACS chemical biology, 2012)",
  "key": {"in vitro": {"assay": "in vitro", "settings": "human"}, "[1]": {"test_system": "VSV-G pseudotyped HIV particles (IN Y143R)", "format": "cell-based, HIV-1", "settings": "read-out: Antiviral IC50 ± SD (EC50), Y143R"}, "[2]": {"test_system": "VSV-G pseudotyped HIV particles (WT)", "assay": "microbe, parasite or virus in culture", "format": "cell-based, HIV-1", "settings": "Human immunodeficiency virus 1, HOS, read-out: Antiviral IC50 ± SD (EC50), WT"}},
  "data": [
    {"smiles": "Cc1nnc(C(=O)NC(C)(C)c2nc(C(=O)NCc3ccc(F)cc3)c(O)c(=O)n2C)o1", "note": "[RAL, raltegravir]", "values": [
      {"measurement": "CC50", "setting": "in vitro", "result": "> 100000", "unit": "nM"},
      {"measurement": "EC50", "setting": "[1]", "result": "210 ± 10", "unit": "nM"},
      {"measurement": "EC50", "setting": "[2]", "result": "4 ± 2", "unit": "nM"}
    ]}
  ]
}
